Tests used:
[1] = test system: isolated rat heart; test: Cardioprotection in electrolysis-induced ROS on isolated rat heart; conditions: Heart (ex vivo)
Experimental: (§1) All experiments were conformed to rules of the Guide for the care and use of laboratory animals published by the U.S. National Institutes of Health (NIH publication No 85-23, revised 1985). Adult male Wistar rats (225-250 g) were anaesthetized with sodium pentobarbitone (0.1 ml/100 g body weight) and then heparinised (500 Ul intra-peritoneally). Hearts were rapidly excised, placed in ice-cold oxygenated KH buffer solution, cleaned and then mounted on a modified Langendorff heart perfusion apparatus.
Hearts were cannulated via the aorta and retrogradely perfused at a constant perfusion pressure (90 mm Hg at 37° C.) with modified KH buffer. This solution was continuously gassed with a mixture of 95% O2 and 5% CO2 to maintain a pH of 7.4 at 37° C. […]
A saline-filled latex balloon was inserted into the left ventricle by way of the AV valve and connected via a polyethylene cannula to a pressure transducer for determination of Left Ventricular Pressure (LVP) and Left Ventricular End Diastolic Pressure (LVEDP). […] The LVP, LVEDP, and ECG were recorded on a Nihon-Kohden polygraph (RM 600); heart rate (HR) was calculated from the electrogram. Coronary flow (CF) was measured by time collection of coronary effluent at various times during the experiment. […]
The cardiodynamic variables were monitored during all the experimental period.

[2] = test system: isolated rat heart; test: Cardioprotection and reperfusion-induced arrhythmias in regional ischemia-reperfusion of isolated rat heart; conditions: Heart (ex vivo)
Experimental: as §1
Hearts were cannulated via the aorta and retrogradely perfused at a constant perfusion pressure (90 mm Hg at 37° C.) with modified KH buffer. […]
A saline-filled latex balloon was inserted into the left ventricle by way of the AV valve and connected via a polyethylene cannula to a pressure transducer for determination of Left Ventricular Pressure (LVP) and Left Ventricular End Diastolic Pressure (LVEDP). […] The LVP, LVEDP, and ECG were recorded on a Nihon-Kohden polygraph (RM 600); heart rate (HR) was calculated from the electrogram. Coronary flow (CF) was measured by time collection of coronary effluent at various times during the experiment.
Hearts were perfused for a 20 min control period with KH buffer, for stabilization. […] Left ventricular pressure and epicardial ECG were continuously monitored before and during ischemia and reperfusion. […]

[3] = In vitro antioxidant capacity, inhibition of DPD oxidation by electrolyzed KH buffer
Source text: Oxidation rate of N,N-diethyl-p-phenylenediamine (DPD) by a prooxidant system was used as a general reporter of the amount of ROS generated by that system (Anonymous, 1985; Chahine et al., 1991). Antioxidant capacity of preparations of TRIAD (or of its components) was defined as the extent (%) to which they inhibited the oxidation of DPD by prooxidants. To estimate the antioxidant capacity of TRIAD preparations in the conditions encountered during perfusion of hearts with electrolyzed buffer, 0.6 ml of modified KH not containing (control situation corresponding to 0% inhibition) or containing various concentrations of TRIAD, TRIAD (S2) or their components was subjected to 1-min electrolysis at 10 mA and then mixed with 0.3 ml of the non-electrolyzed counterpart of the solution to which 95 mM DPD was added. Determination of the amount of oxidized DPD was immediately done by reading absorbencies a 515 nm.

CC(=O)C(=O)[O-].[Na+] [Pyruvate, sodium pyruvate]
Effect of fatty acids and vitamin E on action of pyruvate, the component that mostly contributed to antioxidant action [1]: (Pyruvate, ↑) | Effect of fatty acids and vitamin E on action of pyruvate, the component that mostly contributed to antioxidant action [2]: (Pyruvate, ↓) | Effect of fatty acids and vitamin E on action of pyruvate, the component that mostly contributed to antioxidant action ([3]; DPD (in vitro), electrolysis): (Pyruvate, ↑) | Antioxidant capacity (ROS scavenging) in vitro, comparison ([3]; electrolysis pro-oxidant system, DPD method, same concentrations): only a slightly lower ROS scavenging capacity

Reference: patent US20020123525A1, “Cardioprotective composition and uses thereof” (GESTILAB INC., priority 1999, published 2002)
